Experimental findings from patent publication US5294539A, “Nitrate reductase from yeasts, the preparation and use thereof” (Merck Patent Gesellschaft mit beschrankter Haftung, priority 1990, dated 1994) are described below.

The test deals with NADH-dependent nitrate reductase ([Candida] boidinii, UniProt A0ACB5TRL5).
NADH-dependent nitrate reductase, sequence (A0ACB5TRL5 entry or part of it): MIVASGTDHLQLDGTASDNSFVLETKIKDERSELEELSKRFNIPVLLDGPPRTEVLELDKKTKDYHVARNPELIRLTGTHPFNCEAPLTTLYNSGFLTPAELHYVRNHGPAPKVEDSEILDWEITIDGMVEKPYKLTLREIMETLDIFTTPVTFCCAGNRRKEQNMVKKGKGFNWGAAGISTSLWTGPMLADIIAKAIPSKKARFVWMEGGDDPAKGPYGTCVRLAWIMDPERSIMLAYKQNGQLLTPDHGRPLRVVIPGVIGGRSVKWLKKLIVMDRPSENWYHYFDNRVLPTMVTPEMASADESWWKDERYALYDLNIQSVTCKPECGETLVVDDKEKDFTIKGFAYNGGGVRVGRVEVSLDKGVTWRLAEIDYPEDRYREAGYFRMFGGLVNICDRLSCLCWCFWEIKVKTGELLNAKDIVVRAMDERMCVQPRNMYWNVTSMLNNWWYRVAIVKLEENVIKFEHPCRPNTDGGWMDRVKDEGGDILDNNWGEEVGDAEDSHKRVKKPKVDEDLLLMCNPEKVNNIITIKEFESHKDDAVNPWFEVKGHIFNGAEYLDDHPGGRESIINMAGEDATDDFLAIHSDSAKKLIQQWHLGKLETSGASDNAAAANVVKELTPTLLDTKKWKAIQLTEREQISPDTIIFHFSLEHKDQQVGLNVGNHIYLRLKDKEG

On to `O=NO` [nitrite], for which the End-product inhibition entry is on record as “up to 50%”.
